Earlier results, collected in patent US8226992B1, “Composition and method of preventing and treating redox diseases” (priority 2009, dated 2012).

How the values were obtained:
[1] = target: T1, Farnesoid X Receptors (FXR) (Mus musculus, UniProt Q60641); settings: mouse model
T1 sequence (Q60641 1-488): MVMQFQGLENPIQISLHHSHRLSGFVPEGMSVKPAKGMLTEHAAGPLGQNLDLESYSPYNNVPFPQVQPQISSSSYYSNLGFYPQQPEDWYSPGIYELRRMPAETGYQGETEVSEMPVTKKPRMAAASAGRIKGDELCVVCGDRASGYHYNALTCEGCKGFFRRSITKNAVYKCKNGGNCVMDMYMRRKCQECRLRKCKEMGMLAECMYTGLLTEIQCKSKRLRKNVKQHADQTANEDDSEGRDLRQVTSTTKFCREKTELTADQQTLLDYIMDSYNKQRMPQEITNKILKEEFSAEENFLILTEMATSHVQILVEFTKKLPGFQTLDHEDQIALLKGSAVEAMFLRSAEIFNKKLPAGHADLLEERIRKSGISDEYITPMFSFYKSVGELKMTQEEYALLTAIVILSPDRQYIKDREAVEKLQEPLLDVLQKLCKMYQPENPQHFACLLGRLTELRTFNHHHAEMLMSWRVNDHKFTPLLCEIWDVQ

[2] = at high levels

## C[C@@]12CCc3occc3[C@H]1CC[C@@]13C[C@@H](CC[C@H]12)[C@@](O)(CO)C3 [Cafestol]
[1]
  activity at Farnesoid X Receptors (FXR): agonist ligand

## O=C(O)c1cccnc1 [Naicin]
[2]
  Lp(a) levels reduced: up to 15%
